Several values for one entry are separate records, joined by “and”; a condition that tells them apart may be missing. Equal values may be shown once. Activity calls are given as the source filed them.
Columns and labels:
[1] = target: T1, Heat shock factor protein 1 (Mus musculus, UniProt P38532); experiment: HSF1 potentiators in luciferase reporter cells, confirmation, cell-based, NIH3T3, luminescence, dose retest (AID 435004); assay type: functional;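 also: stress induced by proteasome inhibitor MG132 added 30 min after compound; luciferase reporter driven by HSF1 response element in NIH3T3 cells; actives raise luminescence as potentiators of the MG132 stress response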
T1 sequence (P38532 whole entry): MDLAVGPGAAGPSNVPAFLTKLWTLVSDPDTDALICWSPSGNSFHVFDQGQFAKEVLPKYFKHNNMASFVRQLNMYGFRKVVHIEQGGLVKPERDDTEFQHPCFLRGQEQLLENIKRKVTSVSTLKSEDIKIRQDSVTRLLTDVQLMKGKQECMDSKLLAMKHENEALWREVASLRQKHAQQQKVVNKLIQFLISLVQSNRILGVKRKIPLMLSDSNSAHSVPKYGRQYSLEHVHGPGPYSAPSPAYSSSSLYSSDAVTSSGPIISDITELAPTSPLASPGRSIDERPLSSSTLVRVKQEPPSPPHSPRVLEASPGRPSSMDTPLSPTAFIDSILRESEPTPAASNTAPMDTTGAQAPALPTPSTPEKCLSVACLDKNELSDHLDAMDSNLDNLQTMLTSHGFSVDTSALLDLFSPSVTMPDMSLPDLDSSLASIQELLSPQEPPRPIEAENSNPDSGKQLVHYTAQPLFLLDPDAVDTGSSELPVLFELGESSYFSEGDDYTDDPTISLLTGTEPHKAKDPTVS

[2] = target: Cytochrome P450 2D6 (Homo sapiens, UniProt P10635);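 also: CYP2D6 member of a cytochrome P450 panel assay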
[3] = inhibitors of firefly luciferase expression or activity, dose response, H4 neuroglioma cells, luminescence (AID 1990); assay type: functional, cell-based
[4] = Luminescence Cell-Based Dose Response HTS to Identify Inhibitors of 5'UTR Stem-Loop Driven Prion Protein mRNA Translation in H4 Neuroglioblastoma Cells. [Related pubchem assays: 1827 (Project Summary), 1813 (Primary HTS)]; assay type: functional
[5] = inhibitors of SNCA 5'UTR-driven reporter translation, confirmation, H4 neuroglioma cells, luminescence (AID 1988); assay type: functional, cell-based
[6] = target: Cytochrome P450 2C9 (Homo sapiens, UniProt P11712)
[7] = HEp-2 cell cytotoxicity, dose response, cytotoxicity control for RSV inhibitor project, HTS (AID 2410); assay type: functional; conditions: human respiratory syncytial virus
[8] = target: T1, Heat shock factor protein 1; experiment: inhibition of MG132-induced HSE-luciferase signal, confirmation, cell-based, NIH3T3, luminescence, dose retest (AID 2382); assay type: functional;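 also: NIH3T3 fibroblasts with HSF1-driven luciferase reporter stressed by proteasome inhibitor MG132; luminescence from HSF1-driven luciferase expression after 8 hours of MG132 stress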
[9] = target: Cytochrome P450 3A4 (Homo sapiens, UniProt P08684);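 also: CYP3A4 tested as one member of a cytochrome P450 panel screen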
[10] = system: Streptococcus; experiment: Group A Streptococcus viability loss, dose response, counter-screen for streptokinase expression inhibitor project, luminescence, BacTiterGlo (AID 1915); assay type: functional, organism-based;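 also: potency for reduction of bacterial viability or growth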
[11] = target: T2, Streptokinase A (Streptococcus pyogenes serotype M1, UniProt P10520); experiment: S. pyogenes streptokinase expression inhibitors, potency, dose response, plasminogen activation absorbance, OD405 (AID 1914); assay type: functional, Streptococcus pyogenes M1 GAS;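 also: secreted streptokinase activity via plasminogen activation per viability signal from cell pellet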
T2 sequence (P10520 whole entry): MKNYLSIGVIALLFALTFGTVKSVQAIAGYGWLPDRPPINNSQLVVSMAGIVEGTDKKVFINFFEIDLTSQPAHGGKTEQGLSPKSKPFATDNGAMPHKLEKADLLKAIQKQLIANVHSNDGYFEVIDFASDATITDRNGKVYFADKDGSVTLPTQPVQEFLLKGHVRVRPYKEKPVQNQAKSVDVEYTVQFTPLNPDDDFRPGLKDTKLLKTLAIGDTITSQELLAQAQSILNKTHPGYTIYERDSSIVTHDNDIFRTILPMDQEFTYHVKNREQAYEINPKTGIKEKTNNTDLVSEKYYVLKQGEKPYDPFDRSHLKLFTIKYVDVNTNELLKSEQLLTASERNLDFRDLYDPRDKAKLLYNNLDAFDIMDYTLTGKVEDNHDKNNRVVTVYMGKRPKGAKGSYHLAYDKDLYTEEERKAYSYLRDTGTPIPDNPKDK

[12] = system: Streptococcus sp. 'group A'; experiment: growth inhibition of control SK(-) GAS strain, dose response, counter-screen for streptokinase expression inhibitor project, luminescence, kanamycin, BacTiterGlo, confirmation (AID 1900); assay type: functional, organism-based
[13] = target: Cytochrome P450 2C19 (Homo sapiens, UniProt P33261); experiment: Cytochrome panel assay with activity outcomes. Panel member name: p450-cyp2c19 Compounds with AC50 equal or less than 10 uM are considered active; assay type: functional; conditions: read-out: AC50
[14] = system: H9c2; experiment: cells; assay type: functional, cell-based; conditions: Rattus norvegicus, H9c2, Myocardium;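 also: confirmatory concentration-response retest of ultra-high-throughput screening hits for modulation of myocardial damage; cell death induced by hydrogen peroxide oxidative stress; compound pretreatment for 60 min then peroxide exposure for 2 h; potency is for protecting the cells against peroxide damage rather than for killing them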
[15] = inhibitors of intracellular T. cruzi replication, confirmation, NIH3T3 host cells, beta-gal luminescence (AID 2044); assay type: functional, cell-based;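 also: intracellular parasites grown in NIH/3T3 mouse fibroblasts as host cells; luminescent beta-galactosidase reporter signal from transgenic T. cruzi replicating inside host cells; inhibitors lower the luminescence signal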
[16] = cytotoxicity toward NIH3T3 fibroblasts, dose response, counter-screen, cell-based, ATP luminescence, mouse fibroblasts (AID 2010); assay type: functional;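 also: cells exposed to compound for about 90 hours before reading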
[17] = system: INS1; experiment: beta cell apoptosis inhibitors, cytokine rescue, dose response, luminescence, retest (AID 449756); assay type: functional, cell-based; conditions: Rattus norvegicus;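 also: cell death triggered by IL-1 beta plus TNF-alpha plus IFN-gamma mixture; protective hits raise ATP signal compared with cytokine alone wells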

Chain of Cytochrome P450 2D6 (P10635 whole entry): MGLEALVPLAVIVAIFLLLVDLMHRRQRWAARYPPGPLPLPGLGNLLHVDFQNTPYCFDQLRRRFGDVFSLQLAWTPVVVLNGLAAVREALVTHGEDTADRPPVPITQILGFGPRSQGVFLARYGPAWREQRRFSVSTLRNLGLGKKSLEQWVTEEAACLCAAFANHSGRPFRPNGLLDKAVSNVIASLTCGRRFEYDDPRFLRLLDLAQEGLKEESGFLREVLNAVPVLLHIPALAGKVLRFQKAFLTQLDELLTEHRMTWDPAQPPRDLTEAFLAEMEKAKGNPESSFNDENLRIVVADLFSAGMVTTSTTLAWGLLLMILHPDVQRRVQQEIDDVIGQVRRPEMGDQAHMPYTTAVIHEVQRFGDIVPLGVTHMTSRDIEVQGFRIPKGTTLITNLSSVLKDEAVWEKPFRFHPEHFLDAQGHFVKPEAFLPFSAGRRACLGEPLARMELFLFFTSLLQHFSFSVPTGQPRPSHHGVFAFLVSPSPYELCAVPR
Chain of Cytochrome P450 2C9 (P11712 whole entry): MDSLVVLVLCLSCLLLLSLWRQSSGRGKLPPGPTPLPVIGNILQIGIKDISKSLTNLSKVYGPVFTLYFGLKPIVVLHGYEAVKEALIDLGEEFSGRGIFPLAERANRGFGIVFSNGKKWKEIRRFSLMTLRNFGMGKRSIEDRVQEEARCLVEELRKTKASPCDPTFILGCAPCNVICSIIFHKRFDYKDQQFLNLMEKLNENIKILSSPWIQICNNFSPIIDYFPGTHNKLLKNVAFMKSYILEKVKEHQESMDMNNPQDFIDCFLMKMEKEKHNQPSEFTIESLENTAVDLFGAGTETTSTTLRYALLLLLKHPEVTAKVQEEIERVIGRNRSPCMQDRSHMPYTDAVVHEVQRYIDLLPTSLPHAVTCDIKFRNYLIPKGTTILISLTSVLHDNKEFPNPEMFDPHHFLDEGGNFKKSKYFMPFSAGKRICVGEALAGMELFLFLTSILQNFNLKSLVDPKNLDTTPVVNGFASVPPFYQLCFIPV
Chain of Cytochrome P450 3A4 (P08684 whole entry): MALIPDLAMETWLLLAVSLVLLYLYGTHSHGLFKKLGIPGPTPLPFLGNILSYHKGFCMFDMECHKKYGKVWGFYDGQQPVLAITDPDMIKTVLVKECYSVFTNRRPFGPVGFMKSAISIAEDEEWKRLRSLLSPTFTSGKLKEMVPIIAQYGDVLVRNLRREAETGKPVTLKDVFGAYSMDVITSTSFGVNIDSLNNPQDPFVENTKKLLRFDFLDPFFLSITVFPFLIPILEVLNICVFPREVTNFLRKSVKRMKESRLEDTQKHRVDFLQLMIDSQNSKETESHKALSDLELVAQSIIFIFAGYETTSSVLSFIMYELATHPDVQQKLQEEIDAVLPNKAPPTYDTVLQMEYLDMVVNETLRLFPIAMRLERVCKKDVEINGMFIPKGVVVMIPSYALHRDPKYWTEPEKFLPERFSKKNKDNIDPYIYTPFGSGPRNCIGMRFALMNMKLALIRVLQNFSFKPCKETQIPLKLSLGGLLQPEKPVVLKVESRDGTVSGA
Chain of Cytochrome P450 2C19 (P33261 whole entry): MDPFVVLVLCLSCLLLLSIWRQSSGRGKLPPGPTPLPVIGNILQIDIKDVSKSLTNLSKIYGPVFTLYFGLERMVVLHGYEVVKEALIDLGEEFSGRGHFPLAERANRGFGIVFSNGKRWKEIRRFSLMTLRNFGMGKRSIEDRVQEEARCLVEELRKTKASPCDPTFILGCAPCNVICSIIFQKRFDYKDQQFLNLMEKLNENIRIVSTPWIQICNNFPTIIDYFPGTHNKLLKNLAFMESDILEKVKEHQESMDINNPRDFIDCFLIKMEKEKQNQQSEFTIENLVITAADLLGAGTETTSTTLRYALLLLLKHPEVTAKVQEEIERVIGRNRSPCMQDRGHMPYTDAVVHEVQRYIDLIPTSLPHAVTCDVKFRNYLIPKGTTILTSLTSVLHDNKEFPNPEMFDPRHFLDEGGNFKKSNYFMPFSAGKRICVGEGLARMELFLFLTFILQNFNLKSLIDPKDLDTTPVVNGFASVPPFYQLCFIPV

## Cc1cc(/C=C(/C#N)c2cccc(Cl)c2)c(C)n1C
[1]
  EC50: > 260 µM (inactive)

## Cc1ccc(OCC(=O)N2CCN(c3ccc([N+](=O)[O-])c(N4CCOCC4)c3)CC2)cc1
[2]
  AC50: 12.6 µM (inconclusive)

## COc1ccc(NC(=O)C(=O)NCC(c2ccco2)N2CCc3ccccc32)cc1 (stereo not drawn)
[3]
  EC50: 104 µM (active)
[4]
  EC50: 0.127 µM (active)
[5]
  EC50: 0.11 µM (active)

## CCCC[C@@H]1C[C@H]1C(NC(=O)Cc1ccccc1)c1ccc(Cl)cc1 (stereo partly drawn)
[6]
  AC50: 1.26 µM (inconclusive)
[2]
  AC50: 7.94 µM (inconclusive)

## Cc1c(C)c2ccc(OS(C)(=O)=O)c(C)c2oc1=O
[7]
  CC50: > 50 µM (active)

## CCCCNCCOCCOc1ccccc1-c1ccccc1
[8]
  EC50: > 195 µM (not active)

## CC(C)[C@H](N)c1nnc(SC/C=C/c2ccccc2)o1
[6]
  AC50: 0.0562 µM (inconclusive)
[2]
  AC50: 35.5 µM (inconclusive)

## NCCNS(=O)(=O)c1ccc(N)cc1
[9]
  AC50: 5.01 µM (inconclusive)

## COc1cccc(Nc2nc(N)nc(C(F)(F)F)n2)c1
[7]
  CC50: 20.4 µM (active)

## O=[N+]([O-])c1cc([N+](=O)[O-])c(N2CCOCC2)cc1NCc1ccccc1
[1]
  EC50: > 260 µM (inactive)

## CC(=O)Nc1nc(NC(=O)/C=C/c2ccccc2)n(-c2ccccc2)n1
[10]
  EC50: 33.9 µM (active)
[11]
  EC50: > 150 µM (not active)
[3]
  EC50: 14.2 µM (active)
[4]
  EC50: 13.7 µM (active)
[12]
  EC50: 2.47 µM (active)
[5]
  EC50: 15.7 µM (active)

## COc1cccc(NC(=O)CCSc2nnc3scc(-c4ccccc4)n23)c1
[8]
  EC50: > 195 µM (not active)

## CN(C)c1ccc(/N=N\c2cccc3ccoc23)cc1
[9]
  AC50: 3.98 µM (inconclusive)
[2]
  AC50: 3.16 µM (inconclusive)

## Cc1cccc(OCCCC(=O)Nc2ccc(N3CCCCC3)cc2)c1
[13]
  AC50: 0.355 µM (inconclusive)
[9]
  AC50: 7.08 µM (inconclusive)

## Cc1noc(C)c1C(=O)N1CCC2(CCCN(c3ccncc3)C2)CC1
[9]
  AC50: 31.6 µM (inconclusive)

## Nc1nc(SC/C=C\c2ccccc2)c2nc[nH]c2n1
[6]
  AC50: 3.98 µM (inconclusive)
[2]
  AC50: 3.16 µM (inconclusive)

## O=C(CSc1nc(O)c2ccccc2n1)N1CCCCC1
[14]
  IC50: 10.5 µM (active)

## COc1ccc(NC(=O)CSc2nc(N)c3cc4c(nc3n2)CCCC4)cc1
[1]
  EC50: 53.3 µM (active)

## O=C(Nc1cccc2ccccc12)C12CC3CC(C1)CC(n1cnc([N+](=O)[O-])n1)(C3)C2
[3]
  EC50: 12.9 µM (active)
[4]
  EC50: 12.4 µM (active)
[5]
  EC50: > 60 µM (not active)

## ON=C1c2ccccc2-c2ccccc21
[1]
  EC50: > 260 µM (inactive)

## COc1ccc(C(C)(C)C)cc1NC(=O)c1cncc(Br)c1
[13]
  AC50: 10 µM (inconclusive)
[9]
  AC50: 11.2 µM (inconclusive)

## C1=C(c2ccccc2)CCN(c2nc3ccccc3n3cnnc23)C1
[14]
  IC50: > 79 µM (inactive)

## Cc1cc(N2CCN(C)CC2)ccc1NC(=O)c1cccc(S(=O)(=O)N2CCc3ccccc3C2)c1
[15]
  EC50: 1.43 µM (active)
[3]
  EC50: 9.2 µM (active)
[4]
  EC50: > 120 µM (not active)
[16]
  EC50: 8.5 µM (active)
[5]
  EC50: > 120 µM (not active)

## O=C(CSc1nnc(-c2ccccc2)c(-c2ccccc2)n1)N1CCc2ccccc21
[1]
  EC50: > 260 µM (inactive)

## O=C(CN(Cc1ccco1)Cc1ccco1)Nc1cc(S(=O)(=O)N2CCCCC2)ccc1Cl
[17]
  AC50: 7.48 µM (active)

## C=C(C)CN1CC[C@@]23c4c5ccc(O)c4O[C@H]2c2[nH]c4ccccc4c2C[C@]3(O)[C@@H]1C5
[13]
  AC50: 3.16 µM (inconclusive)
[9]
  AC50: 31.6 µM (inconclusive)

## CO[C@H]1COC(=O)[C@H](C)COC(=O)[C@@H](Cc2ccccc2)NC(=O)C/C=C\[C@H]1C
[9]
  AC50: 6.31 µM (inconclusive)

## CSc1ccccc1C(=O)N1CCN(c2ncccn2)CC1
[8]
  EC50: > 195 µM (not active)

## O=S(=O)(c1ccccc1)N1CCCC(c2nc(O)c3nnn(Cc4ccc5c(c4)OCCO5)c3n2)C1 (stereo not drawn)
[7]
  CC50: 16.9 µM (active)

## CCCCCSc1nc2c(c(=O)[nH]c(=O)n2C)n1C(C)C
[3]
  EC50: > 120 µM (not active)
[4]
  EC50: 16.5 µM (active)
[5]
  EC50: 12.5 µM (active)

## COc1ccc(CNC(=O)COc2cc3c(c4oc(=O)cc(C)c24)CCC(C)(C)O3)cc1OC
[7]
  CC50: > 50 µM (active)

## Cc1cnc(CNc2ccnc(-c3ccccc3Cl)n2)cn1
[13]
  AC50: 39.8 µM (inconclusive)
[9]
  AC50: 10 µM (inconclusive)

## CCCC[C@@H]1C[C@H]1C(NC(=O)c1cccnc1)c1ccc(Cl)cc1 (stereo partly drawn)
[2]
  AC50: 25.1 µM (inconclusive)

## Cc1cccc(OC2CCN(Cc3nc(CC4CC4)no3)CC2)c1
[3]
  EC50: > 120 µM (not active)
[4]
  EC50: > 120 µM (not active)
[5]
  EC50: 55.7 µM (active)

## COc1ccc(-c2nc3cnc(N(C)C)nc3n(Cc3cccs3)c2=O)cc1
[9]
  AC50: 12.6 µM (inconclusive)

## CC(C)c1nc2oc3c(NCc4ccccn4)ncnc3c2c2c1COC(C)(C)C2
[3]
  EC50: 33 µM (active)
[4]
  EC50: > 120 µM (not active)
[5]
  EC50: 16.7 µM (active)

## NN=C(S)Nc1ccc(OC(F)(F)F)cc1
[17]
  AC50: > 260 µM (inactive)

## COc1ccc(C2C(C#N)=C(N)N(c3ccccc3)C3=C2C(=O)CCC3)cc1Cn1cc([N+](=O)[O-])cn1 (stereo not drawn)
[3]
  EC50: 13.2 µM (active)
[4]
  EC50: 17.1 µM (active)
[5]
  EC50: 105 µM (active)

## COC(=O)C(c1ccccc1)C1(O)CC(C)N(C)CC1C (stereo not drawn)
[8]
  EC50: > 195 µM (not active)

## CC(C)N(Cc1ccccc1)C(=O)COC(=O)/C=C/c1cnc2ccccc2n1
[1]
  EC50: 23 µM (active)

## Oc1cc(O)cc(/C=C\c2ccc(O)c(O)c2)c1
[6]
  AC50: 31.6 µM (inconclusive)
[9]
  AC50: 20 µM (inconclusive)

## CC(C)(C)C(=O)NC(Nc1cccc2cccnc12)C(Cl)(Cl)Cl (stereo not drawn)
[9]
  AC50: 7.08 µM (inconclusive)
[17]
  AC50: 23.6 µM (active)
[2]
  AC50: 15.8 µM (inconclusive)

## c1ccc2c(c1)nnn1c3ccccc3nc21
[1]
  EC50: > 260 µM (inactive)

## CN1CCN(c2ccc([N+](=O)[O-])cc2NC(=O)c2ccccc2Cl)CC1
[2]
  AC50: 17.8 µM (inconclusive)

## Cc1cc(=O)oc2c(C)c(OC(C)C(=O)NCC(O)c3ccccc3)ccc12 (stereo not drawn)
[1]
  EC50: > 260 µM (inactive)

## O=C(CN1C(=O)/C(=C\c2cccc(Cl)c2)Sc2ccccc21)NCCCN1CCOCC1
[1]
  EC50: 245 µM (active)

## CCN(CC)S(=O)(=O)c1ccc(C(=O)NN(C)C2=NS(=O)(=O)c3ccccc32)cc1
[1]
  EC50: > 260 µM (inactive)

## CCC(CO)NCC#Cc1ccccc1 (stereo not drawn)
[1]
  EC50: > 260 µM (inactive)

## Cc1cccc(N(NC(=O)C(C)(C)O)C(=O)c2ccccc2)c1
[6]
  AC50: 39.8 µM (inconclusive)
[9]
  AC50: 17.8 µM (inconclusive)

## CCOc1cc(/C=N/NC(=O)c2cc(-c3ccccc3)nc3ccccc23)ccc1O
[7]
  CC50: 31.8 µM (active)

## C/C(=N\NC(=O)c1nnn(-c2nonc2N)c1C(C)C)c1cc(C)sc1C
[7]
  CC50: > 50 µM (active)

## NC[C@@H]1O[C@H](C23CC4CC(CC(C4)C2)C3)Cc2c1ccc(O)c2O
[9]
  AC50: 20 µM (inconclusive) and 31.6 µM (inconclusive)

## COc1cc(/C=N/NC(=O)c2cccnc2)ccc1OC(=O)c1cc(OC)c(OC)c(OC)c1
[17]
  AC50: 1.1 µM (active)

## Cc1cccc(N/N=C(\C=O)C(=O)c2ccc(Br)cc2)c1
[1]
  EC50: > 260 µM (inactive)

## c1ccc2oc(C3=NCCN3)cc2c1
[2]
  AC50: 39.8 µM (inconclusive)

Reference: ChEMBL document CHEMBL1201862, “PubChem BioAssay data set” (2004)
